Literature values as cited in patent US12295935B2, “Method for therapeutic treatment of rosacea” (Sol-Gel Technologies Ltd., priority 2019, dated 2025).

System: rosacea
Settings: BPO as sole active agent

Structure (SMILES): O=C(OOC(=O)c1ccccc1)c1ccccc1 [BPO, Benzoyl peroxide]
- response of lesions: unresponsive
